Experimental data taken from US20120058989A1, “ANTIBACTERIAL FLUOROQUINOLONE ANALOGS” (Achaogen, Inc., priority 2008, published 2012).
In brackets after ≈: the same amount, converted by molar mass.

Tests used:
Assay in all cases: MIC, CLSI broth microdilution
Format in all cases: cell-based
[1] = tested on: S. pneumoniae ASPN001 (Fluoroquinolone-susceptible, ATCC49619); details: Table 2
Experimental: (§1) Minimum inhibitory concentrations (MIC) were determined by reference Clinical and Laboratory Standards Institute (CLSI) broth microdilution methods per M7-A7 [2006]. Quality control ranges utilizing E. coli ATCC 25922, P. aeruginosa ATCC 27853 and S. aureus ATCC 29213, and interpretive criteria for comparator agents were as published in CLSI M100-S17 [2007]. Briefly, serial two-fold dilutions of the test compounds were prepared at 2× concentration in Mueller Hinton Broth. The compound dilutions were mixed in 96-well assay plates in a 1:1 ratio with bacterial inoculum. The inoculum was prepared by suspension of a colony from an agar plate that was prepared the previous day. Bacteria were suspended in sterile saline and added to each assay plate to obtain a final concentration of 5×10^5 CFU/mL. The plates were incubated at 35° C. for 20 hours in ambient air.

[2] = tested on: S. aureus ASAU1031 (Fluoroquinolone-resistant); details: Table 2
Experimental: as §1

[3] = tested on: S. aureus ASAU001 (Fluoroquinolone-susceptible, ATCC29213); details: for MIC ASAU 001: Table 2; for MIC: Staphylococcus aureus, Table 2, read-out: MIC ASAU 001
Experimental: as §1

[4] = tested on: P. aeruginosa APAE001 (Fluoroquinolone-susceptible, ATCC27853); details: for MIC APAE 001: Table 2; for MIC: Pseudomonas aeruginosa, Table 2, read-out: MIC APAE 001
Experimental: as §1

[5] = tested on: A. baumannii AABA1009 (Fluoroquinolone-resistant); details: Table 2
Experimental: as §1

[6] = tested on: P. aeruginosa APAE054 (Fluoroquinolone-resistant); details: Table 2
Experimental: as §1

[7] = tested on: E. coli AECO066 (Fluoroquinolone-resistant); details: for MIC AECO 066: Table 2; for MIC: Escherichia coli, Table 2, read-out: MIC AECO 066
Experimental: as §1

[8] = tested on: S. pneumoniae ASPN1027 (Fluoroquinolone-resistant); details: Table 2
Experimental: as §1

[9] = tested on: A. baumannii AABA1065 (Fluoroquinolone-susceptible); details: for MIC AABA 1065: Table 2; for MIC: Acinetobacter baumannii, Table 2, read-out: MIC AABA 1065
Experimental: as §1

[10] = tested on: E. coli AECO001 (Fluoroquinolone susceptible, ATCC25922); details: Table 2, 35° C., 20 hours; for MIC: Escherichia coli, read-out: MIC AECO 001
Experimental: as §1

Row | MIC ASPN 001 [1] | MIC ASAU 1031 [2] | MIC ASAU 001 [3] | MIC APAE 001 [4] | MIC AABA 1009 [5] | MIC APAE 054 [6] | MIC AECO 066 [7] | MIC ASPN 1027 [8] | MIC AABA 1065 [9] | MIC AECO 001 [10] | MIC [3] [µg/mL] | MIC [4] [µg/mL] | MIC [7] [µg/mL] | MIC [9] [µg/mL] | MIC [10] [µg/mL] | SMILES
1 |  |  |  |  |  |  |  |  |  |  | > 8 | > 8 | > 8 | > 8 | > 8 | O=C1CC2CCCN2c2c(F)cc3c(=O)c(C(=O)O)cn(C4CC4)c3c2N1 (stereo not drawn) [32/3]
2 |  |  |  |  |  |  |  |  |  |  | 1 to 8 (≈ 2.9 to 23.2 µM) | > 8 | > 8 | > 8 | > 8 | O=C(O)c1cn(C2CC2)c2c3c(c(F)cc2c1=O)N1CCCC1CO3 (stereo not drawn) [Comparative Compound 1, reference compound]

Row | SMILES | MIC ASPN 001 [1] | MIC ASAU 1031 [2] | MIC ASAU 001 [3] | MIC APAE 001 [4] | MIC AABA 1009 [5] | MIC APAE 054 [6] | MIC AECO 066 [7] | MIC ASPN 1027 [8] | MIC AABA 1065 [9] | MIC AECO 001 [10] | MIC [3] [µg/mL] | MIC [4] [µg/mL] | MIC [7] [µg/mL] | MIC [9] [µg/mL] | MIC [10] [µg/mL]
3 | NC1CCN2c3c(F)cc4c(=O)c(C(=O)O)cn(C5CC5)c4c3COCC12.O=C(O)C(F)(F)F [6/7, (3aS,4R)-4-amino-13-cyclopropyl-8-fluoro-10-oxo-3a,4,5,6,10,13-hexahydro-1H,3H-pyrrolo[2′,1′:3,4][1,4]oxazepino[5,6-h]quinoline-1′-carboxylic acid trifluoroacetate] | A (MIC's of 1.0 μg/mL or less = A) | B (MIC's of greater than 1.0 μg/mL to 8.0 μg/mL = B) | A (MIC's of 1.0 μg/mL or less = A) | A (MIC's of 1.0 μg/mL or less = A) | B (MIC's of greater than 1.0 μg/mL to 8.0 μg/mL = B) | C (MIC's of greater than 8.0 μg/mL = C) | B (MIC's of greater than 1.0 μg/mL to 8.0 μg/mL = B) | A (MIC's of 1.0 μg/mL or less = A) | A (MIC's of 1.0 μg/mL or less = A) | A (MIC's of 1.0 μg/mL or less = A) |  |  |  |  | 
4 | O=C(O)C(F)(F)F.O=C(O)c1cn(C2CC2)c2c3c(c(F)cc2c1=O)N1CCCC1CNC3 (stereo not drawn) [13/5, 13-Cyclopropyl-8-fluoro-10-oxo-2,3,3a,4,5,6,10,13-octahydro-1H-pyrrolo[2′,1′:3,4][1,4]diazepino[5,6-h]quinoline-11-carboxylic acid trifluoroacetate] | B (MIC's of greater than 1.0 μg/mL to 8.0 μg/mL = B) | C (MIC's of greater than 8.0 μg/mL = C) | A (MIC's of 1.0 μg/mL or less = A) | B (MIC's of greater than 1.0 μg/mL to 8.0 μg/mL = B) | C (MIC's of greater than 8.0 μg/mL = C) | C (MIC's of greater than 8.0 μg/mL = C) | C (MIC's of greater than 8.0 μg/mL = C) | C (MIC's of greater than 8.0 μg/mL = C) | A (MIC's of 1.0 μg/mL or less = A) | A (MIC's of 1.0 μg/mL or less = A) |  |  |  |  | 
5 | O=C(O)c1cn(C2CC2)c2c3c(c(F)cc2c1=O)N1CC(=NO)C[C@H]1CC=C3 [18/11, (7aR,9E)-4-Cyclopropyl-12-fluoro-9-(hydroxyimino)-1-oxo-4,7,7a,8,9,10-hexahydro-1H-pyrrolo[1′,2′:1,7]aze-pino[2,3-h]quinoline-2-carboxylic acid] | A (MIC's of 1.0 μg/mL or less = A) | A (MIC's of 1.0 μg/mL or less = A) | A (MIC's of 1.0 μg/mL or less = A) | B (MIC's of greater than 1.0 μg/mL to 8.0 μg/mL = B) | C (MIC's of greater than 8.0 μg/mL = C) | C (MIC's of greater than 8.0 μg/mL = C) | C (MIC's of greater than 8.0 μg/mL = C) | A (MIC's of 1.0 μg/mL or less = A) | A (MIC's of 1.0 μg/mL or less = A) | A (MIC's of 1.0 μg/mL or less = A) |  |  |  |  | 
6 | O=C(O)c1cn(C2CC2)c2c3c(c(F)cc2c1=O)N1C[C@H](O)C[C@H]1CCC3 [18/8, (7aR,9R)-4-Cyclopropyl-12-fluoro-9-hydroxy-1-oxo-4,5,6,7,7a,8,9,10-octahydro-1H-pyrrolo-[1′,2′:1,7]aze-pino[2,3-h]quinoline-2-carboxylic acid] | A (MIC's of 1.0 μg/mL or less = A) | B (MIC's of greater than 1.0 μg/mL to 8.0 μg/mL = B) | A (MIC's of 1.0 μg/mL or less = A) | C (MIC's of greater than 8.0 μg/mL = C) | C (MIC's of greater than 8.0 μg/mL = C) | C (MIC's of greater than 8.0 μg/mL = C) | C (MIC's of greater than 8.0 μg/mL = C) | C (MIC's of greater than 8.0 μg/mL = C) | B (MIC's of greater than 1.0 μg/mL to 8.0 μg/mL = B) | A (MIC's of 1.0 μg/mL or less = A) |  |  |  |  | 
7 | O=C(O)c1cn(C2CC2)c2c3c(c(F)cc2c1=O)N1CCCC1COC3 (stereo not drawn) [11/8, 13-Cyclopropyl-8-fluoro-10-oxo-3a,4,5,6,10,13-hexahydro-1H,3H-pyrrolo[2′,1′:3,4][1,4]oxazepino[5,6-h]quinoline-11-carboxylic acid] | A (MIC's of 1.0 μg/mL or less = A) | B (MIC's of greater than 1.0 μg/mL to 8.0 μg/mL = B) | A (MIC's of 1.0 μg/mL or less = A) | C (MIC's of greater than 8.0 μg/mL = C) | C (MIC's of greater than 8.0 μg/mL = C) | C (MIC's of greater than 8.0 μg/mL = C) | C (MIC's of greater than 8.0 μg/mL = C) | C (MIC's of greater than 8.0 μg/mL = C) | A (MIC's of 1.0 μg/mL or less = A) | A (MIC's of 1.0 μg/mL or less = A) |  |  |  |  | 
8 | O=C1C[C@H]2CC=Cc3c(c(F)cc4c(=O)c(C(=O)O)cn(C5CC5)c34)N2C1 [18/10, (7aR)-4-Cyclopropyl-12-fluoro-1,9-dioxo-4,7,7a,8,9,10-hexahydro-1H-pyrrolo[1′,2′:1,7]azepino[2,3-h]quino-line-2-carboxylic acid] | B (MIC's of greater than 1.0 μg/mL to 8.0 μg/mL = B) | C (MIC's of greater than 8.0 μg/mL = C) | A (MIC's of 1.0 μg/mL or less = A) | C (MIC's of greater than 8.0 μg/mL = C) | C (MIC's of greater than 8.0 μg/mL = C) | C (MIC's of greater than 8.0 μg/mL = C) | C (MIC's of greater than 8.0 μg/mL = C) | C (MIC's of greater than 8.0 μg/mL = C) | C (MIC's of greater than 8.0 μg/mL = C) | B (MIC's of greater than 1.0 μg/mL to 8.0 μg/mL = B) |  |  |  |  | 
9 | CC(=O)N1Cc2c(c(F)cc3c(=O)c(C(=O)O)cn(C4CC4)c23)N2CCCC2C1 (stereo not drawn) [14/4, 2-Acetyl-13-cyclopropyl-8-fluoro-10-oxo-2,3,3a,4,5,6,10,13-octahydro-1H-pyrrolo[2′,1′:3,4][1,4]diazepino[5,6-h]quinoline-11-carboxylic acid] | C (MIC's of greater than 8.0 μg/mL = C) | C (MIC's of greater than 8.0 μg/mL = C) | C (MIC's of greater than 8.0 μg/mL = C) | C (MIC's of greater than 8.0 μg/mL = C) | C (MIC's of greater than 8.0 μg/mL = C) | C (MIC's of greater than 8.0 μg/mL = C) | C (MIC's of greater than 8.0 μg/mL = C) | C (MIC's of greater than 8.0 μg/mL = C) | C (MIC's of greater than 8.0 μg/mL = C) | B (MIC's of greater than 1.0 μg/mL to 8.0 μg/mL = B) |  |  |  |  | 
10 | O=C(O)c1cn(C2CC2)c2c3c(c(F)cc2c1=O)N1CC[C@H](O)[C@H]1CC=C3 [19/5, (7aR,8S)-4-Cyclopropyl-12-fluoro-8-hydroxy-1-oxo-4,7,7a,8,9,10-hexahydro-1H-pyrrolo[1′,2′:1,7]azepino[2,3-h]quinoline-2-carboxylic acid] | B (MIC's of greater than 1.0 μg/mL to 8.0 μg/mL = B) | C (MIC's of greater than 8.0 μg/mL = C) | A (MIC's of 1.0 μg/mL or less = A) | C (MIC's of greater than 8.0 μg/mL = C) | C (MIC's of greater than 8.0 μg/mL = C) | C (MIC's of greater than 8.0 μg/mL = C) | C (MIC's of greater than 8.0 μg/mL = C) | C (MIC's of greater than 8.0 μg/mL = C) | B (MIC's of greater than 1.0 μg/mL to 8.0 μg/mL = B) | B (MIC's of greater than 1.0 μg/mL to 8.0 μg/mL = B) |  |  |  |  | 
